{"source": "ChEMBL document CHEMBL1159263", "about": "“Cyclic peptides from higher plants, Part 15. Pseudostellarin H, a new cyclic octapeptide from Pseudostellaria heterophylla” (J Nat Prod, 1995)", "target": "T1, Tyrosinase (Homo sapiens) (UniProt P14679)", "T1 sequence (whole entry)": "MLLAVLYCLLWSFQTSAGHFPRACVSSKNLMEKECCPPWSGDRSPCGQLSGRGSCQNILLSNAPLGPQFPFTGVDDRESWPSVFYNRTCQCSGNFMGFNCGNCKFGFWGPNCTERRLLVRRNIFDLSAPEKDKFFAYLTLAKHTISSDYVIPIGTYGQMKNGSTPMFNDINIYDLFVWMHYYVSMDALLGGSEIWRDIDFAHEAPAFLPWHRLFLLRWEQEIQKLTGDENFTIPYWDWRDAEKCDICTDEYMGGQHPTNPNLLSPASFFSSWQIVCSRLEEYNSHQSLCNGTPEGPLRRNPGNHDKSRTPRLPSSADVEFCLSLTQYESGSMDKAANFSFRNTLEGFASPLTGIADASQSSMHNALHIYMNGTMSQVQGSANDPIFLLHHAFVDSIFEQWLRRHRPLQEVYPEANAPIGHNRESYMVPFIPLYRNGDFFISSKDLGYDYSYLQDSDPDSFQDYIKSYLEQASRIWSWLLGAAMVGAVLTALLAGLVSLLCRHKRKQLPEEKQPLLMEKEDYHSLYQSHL", "test": "Inhibition of tyrosinase at 800 uM by dopachrome method", "note": "Peptide text beside a SMILES is read from it.", "data": [{"smiles": "CC(C)C[C@@H]1NC(=O)[C@@H]2CCCN2C(=O)[C@H]([C@@H](C)O)NC(=O)[C@@H]2CCCN2C(=O)[C@H]([C@@H](C)O)NC(=O)CNC(=O)[C@H](Cc2ccccc2)NC(=O)[C@H](Cc2ccccc2)NC1=O", "note": "(cyclo(FFGTPTPL))", "values": [{"measurement": "inhibition", "value": 15, "unit": "%"}]}]}
